Columns and labels:
HeLa-GFP cells [1] = test: HeLa-GFP fluorometric cytotoxicity assay; details: for Percent-GFP-fluorescence after incubation with test compounds, HeLa-GFP (2 μg/ml) / Percent-GFP-fluorescence after incubation with test compounds, HeLa-GFP (20 μg/ml): 18 h incubation, relative to untreated (DMSO) cells; for toxicity to HeLa-GFP cells (in words): loss of GFP signal, Table 1 screen
Experimental: Cell culture. HeLa-GFP cells were cultured in DMEM media supplemented with 10% heat-inactivated newborn calf serum as previously described (Montoya et al., 2004). Stock cultures were prewashed twice with PBS before the treatment of trypsin for cell resuspension and subsequently re-plated at the concentration of 4,000 cells/well.
HeLa-GFP fluorometric cytotoxicity assay. All cell lines were seeded in clear-bottomed 96-well assay plates (3603, Costar, Corning Inc., Corning, N.Y.) in order to minimized background fluorescence. HeLa cells were grown in a total volume of 0.2 ml of medium and incubated overnight for proper cell attachment. The quinone compounds were then added to each well (in triplicate) and then incubated for a period of 18 hr. For the determination of fluorescence, the assay plates were then read using the Fluoroskan Ascent F1 fluorometer (Thermo Electron Corp.) set at the excitation and emission parameters of 485 and 518 nm, respectively. Since the HeLa-GFP cell line is adherent, the fluorometer was set to read from the bottom of the plate for closer proximity to the cells. Before the readings were performed, all supernatant media was removed to avoid any background interference and thus enhancing the sensitivity of the optical readings. For calibration purposes, three untreated control wells were used to determine the maximum level of fluorescence (100%). […] As a cytolysis control (complete loss of fluorescence), three wells containing cells were exposed to 0.2 ml of deionized water. These controls were then used to calculate the percent loss of GFP signal after compound exposure as determined by comparison with control wells containing cells that were not exposed to the chemical agent (see data analysis below).
Data analysis. All compounds, including controls, were screened in triplicate. The average of the three wells that were used for the removal of the background fluorescence (wells containing water for the HeLa-GFP assays and wells containing media alone for bacteria) was subtracted from each individual well. The mean of these triplicate values for each compound was then obtained. These mean values were then divided by the average obtained for maximum fluorescence (cells not treated with compound) and then multiplied by 100 to obtain the percentage values as shown in Table 1.

HeLa-GFP cells [2] = test: Fluorescent microscopy cytotoxicity assay (LD50 determination, FIG. 2); type: cell-based, human; details: for approximate LD50 in HeLa-GFP: various concentrations, cell counts under fluorescent microscopy, FIG. 2
Experimental: The concentration of the test compounds (μM) are shown within the figure. Horizontal bar indicates the 50% toxicity range. H2O2 (+control, 1 mM) was used as a positive control (+; 100% cytolysis) while cells treated with DMSO (1 μl; solvent for all quinones) was used as the negative (−) control.
Fluorescent microscopy cytotoxicity assays. HeLa-GFP cells were plated on 24-well plates and left overnight to adhere. Different dilutions of the quinones were then added to each well (indicated in the legend) using the same concentrations of the positive and negative controls as described in the previous assay. Cell counts were done under fluorescent microscopy to determine cytotoxicity. The status of the fluorescent GFP-nuclei and the typical morphological characteristics of cells undergoing cell death were taken into account when differentiating between dying or viable cells as previously described (Montoya et al., 2004).

E. coli-GFP = test: Toxicity assay with GFP-expressing E. coli; details: for Percent-GFP-fluorescence after incubation with test compounds, E. coli-GFP (20 μg/ml): 10 h incubation, relative to untreated bacteria; for toxicity to E. coli (in words): loss of GFP signal, Table 1 screen
Experimental: (§1) E. coli-GFP cells were grown in LB broth media while the MAC104 M. avium strain was grown in 7H9-ADC media.
(§2) Toxicity assays with GFP-expressing bacteria. E. coli was transformed with a GFP-expression plasmid that also confers tetracycline resistance was kindly provided by Dr. David Schneider (Elrod-Erickson et al., 2000). […] Both bacterial strains were grown and selected based on antibiotic resistance and GFP expression. All toxicity assays were performed using the plates and fluorometric parameters described in the previous section. Bacterial cell suspensions were seeded in a final volume of 100 μl at an optical density of 0.05 and 0.25 at 650 nm, for E. coli-GFP and M. avium-GFP, respectively. After exposure to the test compounds, assay plates were incubated at 37° C. in a humid environment to prevent dehydration in the wells. Unlike the HeLa-GFP assays, reading were performed without removing the supernatants to avoid loss of cells. Several untreated wells containing bacteria and media were used to determine the maximum level of fluorescence. Several wells containing media alone (no bacteria) were included in each assay to remove background fluorescence.
(§3) Data analysis. All compounds, including controls, were screened in triplicate. The average of the three wells that were used for the removal of the background fluorescence (wells containing water for the HeLa-GFP assays and wells containing media alone for bacteria) was subtracted from each individual well. The mean of these triplicate values for each compound was then obtained.

[3] = test system: M. avium-GFP (strain MAC104); test: Toxicity assay with GFP-expressing M. avium; details: for Percent-GFP-fluorescence after incubation with test compounds, M. avium-GFP (20 μg/ml): 18 h incubation, relative to untreated bacteria; for toxicity to M. avium (in words): loss of GFP signal, Table 1 screen
Experimental: as §1, §2, §3

SMILES: CC1=CC(=O)c2c(O)cccc2C1=O [Compound Q1, plumbagin, reference compound]
- Percent-GFP-fluorescence after incubation with test compounds, HeLa-GFP (2 μg/ml) (HeLa-GFP cells [1]): 13.0%
- Percent-GFP-fluorescence after incubation with test compounds, HeLa-GFP (20 μg/ml) (HeLa-GFP cells [1]): 9.0%
- toxicity to HeLa-GFP cells (in words) (HeLa-GFP cells [1]): most toxic
- toxicity to HeLa-GFP cells (in words) (HeLa-GFP cells [1]; listed as Plumbagin): third-most toxic to HeLa cells
- approximate LD50 in HeLa-GFP (HeLa-GFP cells [2]): ~3.0 µM
- Percent-GFP-fluorescence after incubation with test compounds, E. coli-GFP (20 μg/ml) (E. coli-GFP): 1.0%
- toxicity to E. coli (in words) (E. coli-GFP): most toxic
- toxicity to E. coli (in words) (E. coli-GFP; listed as Plumbagin): most toxic compound to E. coli
- Percent-GFP-fluorescence after incubation with test compounds, M. avium-GFP (20 μg/ml) [3]: 7.0%
- toxicity to M. avium (in words) [3]: most toxic
- toxicity to M. avium (in words) ([3]; listed as Plumbagin): most toxic to M. avium

SMILES: O=C1C=CC(=O)c2c(O)ccc(O)c21 [Compound Q3, naphthazarin, reference compound]
- Percent-GFP-fluorescence after incubation with test compounds, HeLa-GFP (2 μg/ml) (HeLa-GFP cells [1]): 0%
- Percent-GFP-fluorescence after incubation with test compounds, HeLa-GFP (20 μg/ml) (HeLa-GFP cells [1]): 4.0%
- toxicity to HeLa-GFP cells (in words) (HeLa-GFP cells [1]): highly toxic
- approximate LD50 in HeLa-GFP (HeLa-GFP cells [2]): ~3.0 µM
- Percent-GFP-fluorescence after incubation with test compounds, E. coli-GFP (20 μg/ml) (E. coli-GFP): 41.0%
- toxicity to E. coli (in words) (E. coli-GFP): highly toxic
- Percent-GFP-fluorescence after incubation with test compounds, M. avium-GFP (20 μg/ml) [3]: 38.0%
- toxicity to M. avium (in words) [3]: highly toxic

SMILES: CCCC1=C(CC)C(=O)c2ccccc2C1=O [Compound Q13]
- Percent-GFP-fluorescence after incubation with test compounds, HeLa-GFP (2 μg/ml) (HeLa-GFP cells [1]): 89.0%
- Percent-GFP-fluorescence after incubation with test compounds, HeLa-GFP (20 μg/ml) (HeLa-GFP cells [1]): 21.0%
- Percent-GFP-fluorescence after incubation with test compounds, E. coli-GFP (20 μg/ml) (E. coli-GFP): 93.0%
- Percent-GFP-fluorescence after incubation with test compounds, M. avium-GFP (20 μg/ml) [3]: 72.0%

SMILES: COc1ccc(CC(=O)n2nnc(C3=C(CO)C(=O)c4ccccc4C3=O)c2CO)cc1 [Compound Q30]
- Percent-GFP-fluorescence after incubation with test compounds, HeLa-GFP (2 μg/ml) (HeLa-GFP cells [1]): 84.0%
- Percent-GFP-fluorescence after incubation with test compounds, HeLa-GFP (20 μg/ml) (HeLa-GFP cells [1]): 47.0%
- Percent-GFP-fluorescence after incubation with test compounds, E. coli-GFP (20 μg/ml) (E. coli-GFP): 105.0%
- Percent-GFP-fluorescence after incubation with test compounds, M. avium-GFP (20 μg/ml) [3]: 96.0%

SMILES: CC(C)=CCC1=C(O)C(=O)c2ccccc2C1=O [Compound Q4, lapachol, reference compound]
- Percent-GFP-fluorescence after incubation with test compounds, HeLa-GFP (2 μg/ml) (HeLa-GFP cells [1]): 70.0%
- Percent-GFP-fluorescence after incubation with test compounds, HeLa-GFP (20 μg/ml) (HeLa-GFP cells [1]): 3.0%
- Percent-GFP-fluorescence after incubation with test compounds, E. coli-GFP (20 μg/ml) (E. coli-GFP): 56.0%
- Percent-GFP-fluorescence after incubation with test compounds, M. avium-GFP (20 μg/ml) [3]: 26.0%

SMILES: CCCCCCCC1=CC(=O)c2ccccc2C1=O [Compound Q12]
- Percent-GFP-fluorescence after incubation with test compounds, HeLa-GFP (2 μg/ml) (HeLa-GFP cells [1]): 81.0%
- Percent-GFP-fluorescence after incubation with test compounds, HeLa-GFP (20 μg/ml) (HeLa-GFP cells [1]): 14.0%
- Percent-GFP-fluorescence after incubation with test compounds, E. coli-GFP (20 μg/ml) (E. coli-GFP): 82.0%
- Percent-GFP-fluorescence after incubation with test compounds, M. avium-GFP (20 μg/ml) [3]: 66.0%

SMILES: CCCC1=CC(=O)c2c(OC)cccc2C1=O [Compound Q16]
- Percent-GFP-fluorescence after incubation with test compounds, HeLa-GFP (2 μg/ml) (HeLa-GFP cells [1]): 78.0%
- Percent-GFP-fluorescence after incubation with test compounds, HeLa-GFP (20 μg/ml) (HeLa-GFP cells [1]): 10.0%
- Percent-GFP-fluorescence after incubation with test compounds, E. coli-GFP (20 μg/ml) (E. coli-GFP): 127.0%
- Percent-GFP-fluorescence after incubation with test compounds, M. avium-GFP (20 μg/ml) [3]: 105.0%

SMILES: CCCCCCCC1=CC(=O)c2c(OC)cccc2C1=O [Compound Q18]
- Percent-GFP-fluorescence after incubation with test compounds, HeLa-GFP (2 μg/ml) (HeLa-GFP cells [1]): 88.0%
- Percent-GFP-fluorescence after incubation with test compounds, HeLa-GFP (20 μg/ml) (HeLa-GFP cells [1]): 22.0%
- Percent-GFP-fluorescence after incubation with test compounds, E. coli-GFP (20 μg/ml) (E. coli-GFP): 112.0%
- Percent-GFP-fluorescence after incubation with test compounds, M. avium-GFP (20 μg/ml) [3]: 127.0%

SMILES: CCCC1=C(CCC)C(=O)c2ccccc2C1=O [Compound Q8]
- Percent-GFP-fluorescence after incubation with test compounds, HeLa-GFP (2 μg/ml) (HeLa-GFP cells [1]): 89.0%
- Percent-GFP-fluorescence after incubation with test compounds, HeLa-GFP (20 μg/ml) (HeLa-GFP cells [1]): 16.0%
- Percent-GFP-fluorescence after incubation with test compounds, E. coli-GFP (20 μg/ml) (E. coli-GFP): 134.0%
- Percent-GFP-fluorescence after incubation with test compounds, M. avium-GFP (20 μg/ml) [3]: 102.0%

SMILES: OO [Compound H2O2, H2O2]
- cytolysis (positive control) (HeLa-GFP cells [2]; 1 mM, HeLa-GFP): 100%

SMILES: CCCCCC1=CC(=O)c2ccccc2C1=O [Compound Q10]
- Percent-GFP-fluorescence after incubation with test compounds, HeLa-GFP (2 μg/ml) (HeLa-GFP cells [1]): 84.0%
- Percent-GFP-fluorescence after incubation with test compounds, HeLa-GFP (20 μg/ml) (HeLa-GFP cells [1]): 52.0%
- Percent-GFP-fluorescence after incubation with test compounds, E. coli-GFP (20 μg/ml) (E. coli-GFP): 110.0%
- Percent-GFP-fluorescence after incubation with test compounds, M. avium-GFP (20 μg/ml) [3]: 81.0%

SMILES: COC(=O)c1ccccc1C1=C(CNC(=O)OC(C)(C)C)C(=O)c2ccccc2C1=O [Compound Q32]
- Percent-GFP-fluorescence after incubation with test compounds, HeLa-GFP (2 μg/ml) (HeLa-GFP cells [1]): 88.0%
- Percent-GFP-fluorescence after incubation with test compounds, HeLa-GFP (20 μg/ml) (HeLa-GFP cells [1]): 57.0%
- Percent-GFP-fluorescence after incubation with test compounds, E. coli-GFP (20 μg/ml) (E. coli-GFP): 99.0%
- Percent-GFP-fluorescence after incubation with test compounds, M. avium-GFP (20 μg/ml) [3]: 80.0%

SMILES: CCCCCCC1=CC(=O)c2c(OC)cccc2C1=O [Compound Q17]
- Percent-GFP-fluorescence after incubation with test compounds, HeLa-GFP (2 μg/ml) (HeLa-GFP cells [1]): 80.0%
- Percent-GFP-fluorescence after incubation with test compounds, HeLa-GFP (20 μg/ml) (HeLa-GFP cells [1]): 18.0%
- Percent-GFP-fluorescence after incubation with test compounds, E. coli-GFP (20 μg/ml) (E. coli-GFP): 115.0%
- Percent-GFP-fluorescence after incubation with test compounds, M. avium-GFP (20 μg/ml) [3]: 100.0%

SMILES: CCCC12OC1(CC)C(=O)c1ccccc1C2=O (stereo not drawn) [Compound Q27]
- Percent-GFP-fluorescence after incubation with test compounds, HeLa-GFP (2 μg/ml) (HeLa-GFP cells [1]): 21.0%
- Percent-GFP-fluorescence after incubation with test compounds, HeLa-GFP (20 μg/ml) (HeLa-GFP cells [1]): 21.0%
- Percent-GFP-fluorescence after incubation with test compounds, E. coli-GFP (20 μg/ml) (E. coli-GFP): 117.0%
- Percent-GFP-fluorescence after incubation with test compounds, M. avium-GFP (20 μg/ml) [3]: 133.0%

SMILES: CCOC(=O)C1=C(CC)C(=O)c2ccccc2C1=O [Compound Q15]
- Percent-GFP-fluorescence after incubation with test compounds, HeLa-GFP (2 μg/ml) (HeLa-GFP cells [1]): 85.0%
- Percent-GFP-fluorescence after incubation with test compounds, HeLa-GFP (20 μg/ml) (HeLa-GFP cells [1]): 53.0%
- Percent-GFP-fluorescence after incubation with test compounds, E. coli-GFP (20 μg/ml) (E. coli-GFP): 80.0%
- Percent-GFP-fluorescence after incubation with test compounds, M. avium-GFP (20 μg/ml) [3]: 40.0%

SMILES: C[Si](C)(C)n1nnc(C2=C(CO)C(=O)c3ccccc3C2=O)c1CO [Compound Q31]
- Percent-GFP-fluorescence after incubation with test compounds, HeLa-GFP (2 μg/ml) (HeLa-GFP cells [1]): 88.0%
- Percent-GFP-fluorescence after incubation with test compounds, HeLa-GFP (20 μg/ml) (HeLa-GFP cells [1]): 82.0%
- Percent-GFP-fluorescence after incubation with test compounds, E. coli-GFP (20 μg/ml) (E. coli-GFP): 107.0%
- Percent-GFP-fluorescence after incubation with test compounds, M. avium-GFP (20 μg/ml) [3]: 94.0%

SMILES: O=C1C=C(CCCO)C(=O)c2ccccc21 [Compound Q14]
- Percent-GFP-fluorescence after incubation with test compounds, HeLa-GFP (2 μg/ml) (HeLa-GFP cells [1]): 83.0%
- Percent-GFP-fluorescence after incubation with test compounds, HeLa-GFP (20 μg/ml) (HeLa-GFP cells [1]): 29.0%
- Percent-GFP-fluorescence after incubation with test compounds, E. coli-GFP (20 μg/ml) (E. coli-GFP): 90.0%
- Percent-GFP-fluorescence after incubation with test compounds, M. avium-GFP (20 μg/ml) [3]: 58.0%

SMILES: CCOC(=O)C12OC1(CC)C(=O)c1ccccc1C2=O (stereo not drawn) [Compound Q28]
- Percent-GFP-fluorescence after incubation with test compounds, HeLa-GFP (2 μg/ml) (HeLa-GFP cells [1]): 17.0%
- Percent-GFP-fluorescence after incubation with test compounds, HeLa-GFP (20 μg/ml) (HeLa-GFP cells [1]): 4.0%
- Percent-GFP-fluorescence after incubation with test compounds, E. coli-GFP (20 μg/ml) (E. coli-GFP): 115.0%
- Percent-GFP-fluorescence after incubation with test compounds, M. avium-GFP (20 μg/ml) [3]: 97.0%

SMILES: O=C1C(c2ccccc2)=C(c2ccccc2)C(=O)c2ccccc21 [Compound Q6]
- Percent-GFP-fluorescence after incubation with test compounds, HeLa-GFP (2 μg/ml) (HeLa-GFP cells [1]): 78.0%
- Percent-GFP-fluorescence after incubation with test compounds, HeLa-GFP (20 μg/ml) (HeLa-GFP cells [1]): 20.0%
- Percent-GFP-fluorescence after incubation with test compounds, E. coli-GFP (20 μg/ml) (E. coli-GFP): 105.0%
- Percent-GFP-fluorescence after incubation with test compounds, M. avium-GFP (20 μg/ml) [3]: 55.0%

Reference: patent publication US20080020421A1, “METHODS OF SCREENING AGENTS FOR CYTOTOXIC AND ANTIMICROBIAL ACTIVITY” (priority 2006, published 2008)
